# Reference: patent US20250154112A1, “A PREPARATION OF QUINAZOLINEDIONES AND USE THEREOF” (COUNCIL OF SCIENTIFIC AND INDUSTRIAL RESEARCH AN INDIAN …, priority 2021, published 2025)
# Key:
# ATGL [1] = experiment: Western blot of ATGL level in HepG2 cells after compound treatment; type: cell-based; conditions: 24 hours; for ATGL level (Western Blot): 50 nM to 5 μM dose dependent, with respect to control; for induction of ATGL (Western Blot): 5 μM
# Method: (§1) HepG2 cells were treated with the compounds 5, 8, 11, 59, 62, 91, 94 (50 nM, 100 nM, 200 nM, 500 nM, 1 μM and 5 μM for dose dependent assays) for 24 hours. After removing media from the cells, the wells were washed with 1×PBS twice to remove any remnant media. Cells were then lysed in lysis buffer containing 50 mM Tris-HCl (pH 7.4), 100 mM NaCl, 1 mM EDTA, 1 mM EGTA, 1% Triton X-100 and protease inhibitor cocktail (Millipore, Billierica, MA, USA). Following centrifugation at 20,000 g for 20 minutes, the protein solution was extracted from the cells. Protein was estimated using Bradford assay. Bradford's reagent (BioRad) was diluted in 1:4 ratio in double distilled water. 2 μl of protein sample was added to 100 μl of the reagent and absorbance was measured at 595 nm. 30 μg of protein was diluted in lysis buffer. 1X loading buffer diluted from 5X stock containing 250 mM Tris-HCl (pH 6.8), 10% SDS, 50% glycerol, 0.1% bromophenol Blue and 10% β-mercaptoethanol was added. The protein samples were then heated at 95° C. for 10 minutes, cooled and centrifuged at 12,000 g for 2 minutes prior to loading.
# (§2) For western blotting, the proteins were resolved in 10% SDS PAGE (discontinuous buffer system). 1X running buffer containing SDS, Tris Base and Glycine was used to run the gel at 80V for approximately 2 hours. Transfer was done using PVDF membrane (Millipore) having pore size of 0.45 μm. 1X transfer buffer containing Tris-Base, Glycine and 20% methanol was used for wet transfer. Transfer was done at 90V for 3 hours. Following transfer, the PVDF membrane containing the proteins were washed in 1×PBST comprising of 1×PBS and 1% Tween 20 (Sigma Aldrich). The membrane was then incubated for 1 hour at room temperature in 5% skim milk powder to block the non-specific sites. Following multiple washes with 1×PBST to wash away any remaining blocking buffer, the required primary antibody (COP1 [BethylLaboraties], ATGL [Cell Signalling Technology] or Actin[Cell Signalling Technology]) prepared with 1×PBST, 1% Bovine Serum Albumin and 0.04% Sodium Azide was added to the membrane and incubated overnight at 4° C. The next day, the membrane was again washed multiple times with 1×PBST to remove any unbound primary antibody. The membrane was then incubated with goat anti-rabbit secondary antibody (Genei) for 1 hour at room temperature and washed again for multiple times with 1×PBST. The membrane was then developed using Clarity™ ECL Western Blotting Substrate (BioRad) and viewed in ChemiDoc (BioRad).
# as §1, with “62, 65,” for “62,”, “at” for “(50 nM, 100 nM, 200 nM, 500 nM, 1 μM and”, “μM” for “μM for dose dependent assays)”, “cocktail 1” for “cocktail”
# COP1 = target: T1, COP1 (Homo sapiens, UniProt Q8NHY2); experiment: Western blot of COP1 level in HepG2 cells after compound treatment; type: cell-based; conditions: 5 μM, 24 hours
# T1 construct: endogenous in cells; host or cells: HepG2
# Method: as §1, with “62, 65,” for “62,”, “at” for “(50 nM, 100 nM, 200 nM, 500 nM, 1 μM and”, “μM” for “μM for dose dependent assays)”, “cocktail 1” for “cocktail”
# as §2
# [2] = Determination of EC50 (in-vitro)
# ATGL [3] = experiment: Fold change in ATGL by densitometric analysis; type: cell-based; conditions: fold change of ATGL with respect to control, normalized with actin
# Method: Densitimetric analysis was performed by image J to calculate the fold change of ATGL with respect to control. The values were normalized with actin.
# Plasma stability assay = type: in vitro ADME; conditions: 1 μM, 37° C.
# Method: 1 mM Stock of test compound was prepared from 10 mM initial stock solution of compounds by diluting 10 μL of 10 mM stock with 90 μL of DMSO. Then 10 μL of 1 mM stock was diluted with 90 μL of DMSO to give 100 μM concentration. The frozen plasma was thawed at room temperature and centrifuged at 1400 rpm at 4° C., for 15 minutes. Approximately 90% of the clear supernatant fraction was transferred to a separate tube and was used for the assay. Final working stock of 1 μM was prepared by diluting 3 μL of 100 μM with 297 μL of plasma. Plasma containing the test compound was incubated for 120 min at 37° C. in shaker with 500 rpm. 50 μL of aliquot of sample at 0, 15, 30, 60 and 120 minutes were precipitated with 150 μL of acetonitrile containing internal standard and centrifuged at 4000 rpm at 4° C. for 20 minutes. 120 μL of supernatant was diluted with 120 μL of water and analysed by LC-MS/MS.
# Kinetic solubility = type: physicochemical; conditions: pH 7.4 phosphate buffer (PBS), aqueous buffer, kinetic from dmso stock, room temperature, 1.0% DMSO
# Method: PBS sachet was dissolved in 0.9 L of Milli Q water and pH was adjusted to 7.4. Final volume was made up to 1 L with the water and stored at ambient temperature 21-25° C. […] 4 μL from the 50 mM stock solution were added to deep well plate containing 396 μL of pH 7.4 phosphate buffer, mixed and incubated for 24 hours at room temperature with constant mixing at 300 rpm. The plate was sealed well during the incubation process. After incubation, the samples were centrifuged for 20 min at 4000 rpm. The supernatant was analysed by HPLC-UV. The DMSO content in the sample was 1.0%. The final concentration of the compound in deep well plate was 500 μM.
# [4] = Lipophilicity assay (octanol/buffer Log D); type: physicochemical; conditions: pH 7.4, n-octanol/sodium phosphate buffer
# Method: 1.56 g NaH2PO4·2H2O was dissolved in 0.5 L water in a 1 L beaker. After adjusting pH to 7.4 using NaOH solution, the volume was made up to 1 L. Equal volumes of sodium phosphate buffer (10 mM, pH 7.4) and n-octanol were added to a separation funnel and mixed thoroughly by shaking and inverting the funnel several times. The two layers were allowed to separate for overnight and then dispensed in two separate glass bottles. 10 mM stock solution was prepared in 100% DMSO and stored at 4° C. 495 μL of organic phase (1-octanol) was added to each well of a 2 mL deep well plate, followed by 495 μL of buffer and 10 μL of test substance was added. The plate was incubated for 3 hrs at room temperature on a plate shaker at 500 rpm. After incubation, the samples were allowed to equilibrate for 20 min and then centrifuged at 4000 rpm for 30 min for complete phase separation and analysed by LC-UV. Log D=Log (area of octanol/area of buffer)
# [5] = Metabolic stability using human liver microsomes (HLM); type: in vitro ADME
# Method: 1 mM stock solution of test compound was prepared in DMSO and diluted with Acetonitrile:Water (1:1) to get a 100 μM working concentration. 100 mL of Milli Q water was added to K2HPO4 (1.398 g) and KH2PO4 (0.27 g) to get final pH 7.4 solution of potassium phosphate buffer. […] The above mixture was pre incubated for 15 minutes at 37° C. After pre incubation, 32.5 μL of the mixture was added to 17.5 μL of buffer, this was incubated for 60 minutes at 37° C. [60 min Without Cofactor (NADPH)]. 16.25 μL of the pre incubated mixture and 8.75 μL of cofactor was added to 150 μL of acetonitrile containing internal standard [0 min Sample]. 62 μL of cofactor was added to remaining pre incubation mixture [Incubation mixture]. 25 μL of incubation mixture at 0, 5, 15, 30, 60 min and 60 min without cofactor were precipitated with 150 μL of acetonitrile containing internal standard, vortexed and centrifuged at 4000 rpm at 4° C. for 20 minutes. 120 μL of supernatant was diluted with 120 μL of water and analyzed by LC-MS/MS [sample preparation].
# T1 sequence (Q8NHY2 whole entry): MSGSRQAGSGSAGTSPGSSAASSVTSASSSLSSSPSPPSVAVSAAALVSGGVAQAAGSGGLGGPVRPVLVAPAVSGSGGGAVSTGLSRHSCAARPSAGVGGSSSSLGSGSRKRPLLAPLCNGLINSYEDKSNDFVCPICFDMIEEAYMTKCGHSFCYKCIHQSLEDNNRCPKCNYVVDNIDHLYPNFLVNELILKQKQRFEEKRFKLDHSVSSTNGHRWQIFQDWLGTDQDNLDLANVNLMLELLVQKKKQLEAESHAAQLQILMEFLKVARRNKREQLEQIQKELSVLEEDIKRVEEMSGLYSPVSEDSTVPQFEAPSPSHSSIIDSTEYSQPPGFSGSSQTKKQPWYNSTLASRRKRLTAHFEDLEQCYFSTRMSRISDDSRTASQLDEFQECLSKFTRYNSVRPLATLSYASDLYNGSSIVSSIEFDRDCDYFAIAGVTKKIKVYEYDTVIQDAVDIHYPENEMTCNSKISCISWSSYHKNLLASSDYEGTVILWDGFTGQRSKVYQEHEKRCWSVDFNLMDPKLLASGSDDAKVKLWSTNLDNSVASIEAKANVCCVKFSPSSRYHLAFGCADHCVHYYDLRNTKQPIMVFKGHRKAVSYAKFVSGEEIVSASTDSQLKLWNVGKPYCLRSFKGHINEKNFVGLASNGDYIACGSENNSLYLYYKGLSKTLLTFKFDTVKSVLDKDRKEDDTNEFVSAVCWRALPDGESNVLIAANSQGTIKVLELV
Structure (SMILES),ATGL level (Western Blot) (ATGL [1]),induction of ATGL (Western Blot) (ATGL [1]),stabilization of COP1 (Western Blot) (COP1),EC50 [2] [nM],Fold change (ATGL [3]),Mean % remaining at 2 hrs in human Plasma (Plasma stability assay) [%],solubility kinetic at 24 hours (Kinetic solubility) [µg/mL],LogD @ pH 7.4 [4],% QH (Well stirred model) [5] [%],logD [4]
"COCCn1c(=O)c2cc(NC(=O)Nc3cccc(C(C)=O)c3)ccc2n(C)c1=O [Compound 8, 1-(3-acetylphenyl)-3-(3-(2-methoxyethyl)-1-methyl-2,4-dioxo-1,2,3,4-tetrahydroquinazolin-6-yl)urea]",increased ATGL level,ability to induce ATGL,stabilize the COP1,17.8,1.34,–,–,–,–,–
"COCCn1c(=O)c2cc(NC(=O)Nc3cccc(C(C)=O)c3)ccc2n(C(C)C)c1=O [Compound 11, 1-(3-acetylphenyl)-3-(1-isopropyl-3-(2-methoxyethyl)-2,4-dioxo-1,2,3,4-tetrahydroquinazolin-6-yl)urea]",increased ATGL level,ability to induce ATGL,stabilize the COP1,100,1.25,80.80,2.8,2.67,40.30,–
"COCCn1c(=O)c2cc(NC(=O)Nc3cccc(C(C)=O)c3)ccc2n(CCN2CCOCC2)c1=O [Compound 65, 1-(3-acetylphenyl)-3-(3-(2-methoxyethyl)-1-(2-morpholinoethyl)-2,4-dioxo-1,2,3,4-tetrahydroquinazolin-6-yl)urea]",–,ability to induce ATGL,stabilize the COP1,50,1.44,48.20,20.8,–,62.0,2.08
"COCCn1c(=O)c2cc(NC(=O)Nc3cccc(C(C)=O)c3)ccc2n(CCN2CCCC2)c1=O [Compound 59, 1-(3-acetylphenyl)-3-(3-(2-methoxyethyl)-2,4-dioxo-1-(2-(pyrrolidin-1-yl)ethyl)-1,2,3,4-tetrahydroquinazolin-6-yl)urea]",increased ATGL level,ability to induce ATGL,stabilize the COP1,209,1.18,32.80,124,2.58,17.46,–
"CC(C)[N+](C)(CCOC(=O)C1c2ccccc2Oc2ccccc21)C(C)C [Propantheline, reference compound]",–,–,–,–,–,1.70,–,–,–,–
"COCCc1ccc(OCC(O)CNC(C)C)cc1 (stereo not shown) [Metroprolol, reference compound]",–,–,–,–,–,–,–,−0.04,–,–
"COCCn1c(=O)c2cc(NC(=O)Nc3cccc(C(C)=O)c3)ccc2n(CCCN2CCCCC2)c1=O [Compound 91, 1-(3-acetylphenyl)-3-(3-(2-methoxyethyl)-2,4-dioxo-1-(3-(piperidin-1-yl)propyl)-1,2,3,4-tetrahydroquinazolin-6-yl)urea]",increased ATGL level,ability to induce ATGL,stabilize the COP1,–,1.17,–,–,–,–,–
